Laboratory results as given in US9328122B2, “7-substituted Hanfangichin B derivative, and preparation method and use thereof” (HANGZHOU BENSHENG PHARMACEUTICAL CO., LTD., priority 2012, dated 2016).
≈ marks a conversion by molar mass, not a printed value.

How the values were obtained:
[1] = tested on: RPMI 8226 (multiple myeloma) cells; experiment: MTT cell growth inhibition, multiple myeloma cells; format: cell-based, human; conditions: Homo sapiens, RPMI 8226, 72 h, MTT; for IC50: read-out: IC50; for IC90: read-out: IC90
How it was run: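 Viable-cell readout by MTT after 72 h exposure (37° C, 5% CO2) of RPMI 8226 cells to a range of compound concentrations, added one day post-seeding. Cells were seeded at 6000 per well in RPMI-1640 containing 10% FBS.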

[2] = tested on: Hep G2 (human liver cancer) cells; experiment: MTT cell growth inhibition, solid tumor cells; format: cell-based; conditions: for IC50 / IC90: Homo sapiens, HepG2, Hep G2, 72 h, MTT; for IC50: read-out: IC50; for IC90: read-out: IC90
How it was run: (§1)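 MTT readout of viable cell concentration after 72 h compound treatment at a range of concentrations (37° C, 5% CO2). Before dosing, 6000 cells per well were seeded in DMEM high glucose plus 10% fetal bovine serum and cultured 24 h.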

[3] = tested on: MGC-803 (human gastric cancer) cells; experiment: MTT cell growth inhibition, solid tumor cells; format: cell-based; conditions: MGC-803, 72 h, MTT; for IC50: read-out: IC50; for IC90: read-out: IC90
How it was run: as §1

[4] = tested on: A549 (human lung cancer) cells; experiment: MTT cell growth inhibition, solid tumor cells; format: cell-based; conditions: Homo sapiens, A549, 72 h, MTT; for IC50: read-out: IC50; for IC90: read-out: IC90
How it was run: as §1

[5] = tested on: U87-MG (malignant glioma) cells; experiment: MTT cell growth inhibition, solid tumor cells; format: cell-based; conditions: Homo sapiens, U-87 MG, U87-MG, 72 h, MTT; for IC50: read-out: IC50; for IC90: read-out: IC90
How it was run: as §1

[6] = tested on: Hela (human cervical cancer) cells; experiment: MTT cell growth inhibition, solid tumor cells; format: cell-based; conditions: Homo sapiens, Hela, 72 h, MTT; for IC50: read-out: IC50; for IC90: read-out: IC90
How it was run: as §1

[7] = tested on: RKO (human colon adenocarcinoma) cells; experiment: MTT cell growth inhibition, solid tumor cells; format: cell-based; conditions: Homo sapiens, RKO, 72 h, MTT; for IC50: read-out: IC50; for IC90: read-out: IC90
How it was run: as §1

[8] = tested on: Hep-2 (laryngeal carcinoma) cells; experiment: MTT cell growth inhibition, solid tumor cells; format: cell-based; conditions: Homo sapiens, Hep-2, 72 h, MTT; for IC50: read-out: IC50; for IC90: read-out: IC90
How it was run: as §1

[9] = tested on: Becap-37 (human breast cancer) cells; experiment: MTT cell growth inhibition, solid tumor cells; format: cell-based; conditions: for IC50 / IC90: Homo sapiens, Becap-37, 72 h, MTT; for IC50: read-out: IC50; for IC90: read-out: IC90
How it was run: as §1

[10] = tested on: MG-63 (osteosarcoma) cells; experiment: MTT cell growth inhibition, solid tumor cells; format: cell-based; conditions: Homo sapiens, MG-63, 72 h, MTT; for IC50: read-out: IC50; for IC90: read-out: IC90
How it was run: as §1

[11] = tested on: NB4 (acute promyelocytic leukemia) cells; experiment: MTT cell growth inhibition, leukemia cells; format: cell-based; conditions: Homo sapiens, NB4, 72 h, MTT; for IC50: read-out: IC50; for IC90: read-out: IC90
How it was run: (§2)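 Viability was read by MTT after 72 h of compound exposure at 37° C. under 5% CO2. Compounds were added at a range of concentrations one day after plating 6000 leukemia cells per well in RPMI-1640 containing 10% fetal bovine serum.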

[12] = tested on: K562/ADR (K562adr, drug-resistant chronic myeloid leukemia) cells; experiment: MTT cell growth inhibition, leukemia cells; format: cell-based; conditions: Homo sapiens, K562/ADR, 72 h, MTT; for IC50: read-out: IC50; for IC90: read-out: IC90
How it was run: as §2

tumor = experiment: Antitumor activity compared with fangchinoline, overall statement; format: cell-based; conditions: tumor type not specified
[13] = tested on: SK-OV-3 (ovarian cancer) cells; experiment: MTT cell growth inhibition, solid tumor cells; format: cell-based, human; conditions: Homo sapiens, SK-OV-3, 72 h, MTT; for IC50: read-out: IC50; for IC90: read-out: IC90
How it was run: as §1

[14] = tested on: PANC-1 (pancreatic cancer) cells; experiment: MTT cell growth inhibition, solid tumor cells; format: cell-based, human; conditions: for IC50 / IC90: Homo sapiens, PANC-1, 72 h, MTT; for IC50: read-out: IC50; for IC90: read-out: IC90
How it was run: as §1

[15] = tested on: CaEs-17 (esophageal cancer) cells; experiment: MTT cell growth inhibition, solid tumor cells; format: cell-based, human; conditions: Homo sapiens, CaEs17, CaEs-17, 72 h, MTT; for IC50: read-out: IC50; for IC90: read-out: IC90
How it was run: as §1

[16] = tested on: CNE (nasopharyngeal carcinoma) cells; experiment: MTT cell growth inhibition, solid tumor cells; format: cell-based, human; conditions: Homo sapiens, CNE, 72 h, MTT; for IC50: read-out: IC50; for IC90: read-out: IC90
How it was run: as §1

[17] = tested on: PC-3 (prostate cancer) cells; experiment: MTT cell growth inhibition, solid tumor cells; format: cell-based, human; conditions: Homo sapiens, PC-3, 72 h, MTT; for IC50: read-out: IC50; for IC90: read-out: IC90
How it was run: as §1

[18] = relative to fangchinoline, Table 2

Structure (SMILES)	IC50 [1] [µg/mL]	IC90 [1] [µg/mL]	IC50 [2] [µg/mL]	IC90 [2] [µg/mL]	IC50 [3] [µg/mL]	IC90 [3] [µg/mL]	IC50 [4] [µg/mL]	IC90 [4] [µg/mL]	IC50 [5] [µg/mL]	IC90 [5] [µg/mL]	IC50 [6] [µg/mL]	IC90 [6] [µg/mL]	IC50 [7] [µg/mL]	IC90 [7] [µg/mL]	IC50 [8] [µg/mL]	IC90 [8] [µg/mL]	IC50 [9] [µg/mL]	IC90 [9] [µg/mL]	IC50 [10] [µg/mL]	IC90 [10] [µg/mL]	also measured
COc1ccc2cc1Oc1ccc(cc1)C[C@H]1c3cc(c(OC)cc3CCN1C)Oc1c(OCc3ccc(C(F)(F)F)cc3)c(OC)cc3c1[C@H](C2)N(C)CC3 [BS-FC-216]	0.13 (≈ 0.17 µM)	0.77 (≈ 1 µM)	2.54 (≈ 3.31 µM)	5.91 (≈ 7.71 µM)	2.72 (≈ 3.55 µM)	3.98 (≈ 5.19 µM)	2.7 (≈ 3.52 µM)	5.9 (≈ 7.69 µM)	2.11 (≈ 2.75 µM)	7.74 (≈ 10.1 µM)	1.58 (≈ 2.06 µM)	3.84 (≈ 5.01 µM)	1.69 (≈ 2.2 µM)	5.79 (≈ 7.55 µM)	3.69 (≈ 4.81 µM)	7.88 (≈ 10.3 µM)	3.36 (≈ 4.38 µM)	5.3 (≈ 6.91 µM)	3.4 (≈ 4.43 µM)	5.5 (≈ 7.17 µM)	IC50 [11]: 0.99 µg/mL (≈ 1.29 µM); IC90 [11]: 2.93 µg/mL (≈ 3.82 µM); IC50 [12]: 0.6 µg/mL (≈ 0.782 µM); IC90 [12]: 2.15 µg/mL (≈ 2.8 µM); antitumor activity compared with that of fangchinoline (tumor): significantly superior; IC50 [13]: 6.19 µg/mL (≈ 8.07 µM); IC90 [13]: 11.2 µg/mL (≈ 14.6 µM); IC50 [14]: 3.62 µg/mL (≈ 4.72 µM); IC90 [14]: 7.25 µg/mL (≈ 9.45 µM); IC50 [15]: 3.1 µg/mL (≈ 4.04 µM); IC90 [15]: 7.59 µg/mL (≈ 9.9 µM); IC50 [16]: 3.38 µg/mL (≈ 4.41 µM); IC90 [16]: 7.34 µg/mL (≈ 9.57 µM); IC50 [17]: 3.95 µg/mL (≈ 5.15 µM); IC90 [17]: 7.45 µg/mL (≈ 9.71 µM)
C=CCN(C)CC(O)COc1c(OC)cc2c3c1Oc1cc4c(cc1OC)CCN(C)[C@H]4Cc1ccc(cc1)Oc1cc(ccc1OC)C[C@@H]3N(C)CC2 (stereo partly drawn) [BS-FC-409]	0.04 (≈ 0.0544 µM)	0.5 (≈ 0.679 µM)	1.27 (≈ 1.73 µM)	3.24 (≈ 4.4 µM)	0.94 (≈ 1.28 µM)	16 (≈ 21.7 µM)	2.98 (≈ 4.05 µM)	8.43 (≈ 11.5 µM)	1.07 (≈ 1.45 µM)	2.68 (≈ 3.64 µM)	1.05 (≈ 1.43 µM)	3.52 (≈ 4.78 µM)	0.65 (≈ 0.883 µM)	1.27 (≈ 1.73 µM)	1.79 (≈ 2.43 µM)	5.54 (≈ 7.53 µM)	1.44 (≈ 1.96 µM)	4.8 (≈ 6.52 µM)	1.1 (≈ 1.49 µM)	1.99 (≈ 2.7 µM)	IC50 [11]: 0.59 µg/mL (≈ 0.802 µM); IC90 [11]: 1.76 µg/mL (≈ 2.39 µM); IC50 [12]: 0.16 µg/mL (≈ 0.217 µM); IC90 [12]: 1.38 µg/mL (≈ 1.88 µM); antitumor activity compared with that of fangchinoline (tumor): significantly superior; IC50 [13]: 2.82 µg/mL (≈ 3.83 µM); IC90 [13]: 9.85 µg/mL (≈ 13.4 µM); IC50 [14]: 3.17 µg/mL (≈ 4.31 µM); IC90 [14]: 7.14 µg/mL (≈ 9.7 µM); IC50 [15]: 0.91 µg/mL (≈ 1.24 µM); IC90 [15]: 4.9 µg/mL (≈ 6.66 µM); IC50 [16]: 0.95 µg/mL (≈ 1.29 µM); IC90 [16]: 3.94 µg/mL (≈ 5.35 µM); IC50 [17]: 2.89 µg/mL (≈ 3.93 µM); IC90 [17]: 5.8 µg/mL (≈ 7.88 µM)
COc1ccc2cc1Oc1ccc(cc1)C[C@H]1c3cc(c(OC)cc3CCN1C)Oc1c(OCC(O)CN3CCCC(C)C3)c(OC)cc3c1[C@H](C2)N(C)CC3 (stereo partly drawn) [BS-FC-410]	< 0.125	0.25 (≈ 0.327 µM)	0.66 (≈ 0.864 µM)	1.51 (≈ 1.98 µM)	0.49 (≈ 0.641 µM)	3.21 (≈ 4.2 µM)	1.71 (≈ 2.24 µM)	6.8 (≈ 8.9 µM)	0.67 (≈ 0.877 µM)	1.19 (≈ 1.56 µM)	1.33 (≈ 1.74 µM)	2.41 (≈ 3.15 µM)	0.44 (≈ 0.576 µM)	0.95 (≈ 1.24 µM)	2.25 (≈ 2.95 µM)	8 (≈ 10.5 µM)	0.73 (≈ 0.956 µM)	2.48 (≈ 3.25 µM)	1.1 (≈ 1.44 µM)	1.7 (≈ 2.23 µM)	anti-Hep G2 activity increase over fangchinoline [2, 18]: ~3 fold; anti-Becap37 activity increase over fangchinoline [9, 18]: ~3 fold; IC50 [11]: 0.28 µg/mL (≈ 0.367 µM); IC90 [11]: 0.91 µg/mL (≈ 1.19 µM); IC50 [12]: 0.05 µg/mL (≈ 0.0654 µM); IC90 [12]: 0.63 µg/mL (≈ 0.825 µM); antitumor activity compared with that of fangchinoline (tumor): significantly superior; IC50 [13]: 1.39 µg/mL (≈ 1.82 µM); IC90 [13]: 5.59 µg/mL (≈ 7.32 µM); IC50 [14]: 1.11 µg/mL (≈ 1.45 µM); IC90 [14]: 3.77 µg/mL (≈ 4.93 µM); anti-PANC-1 activity increase over fangchinoline [14, 18]: ~3 fold; IC50 [15]: 0.76 µg/mL (≈ 0.995 µM); IC90 [15]: 4.3 µg/mL (≈ 5.63 µM); IC50 [16]: 1.1 µg/mL (≈ 1.44 µM); IC90 [16]: 2.4 µg/mL (≈ 3.14 µM); IC50 [17]: 2.85 µg/mL (≈ 3.73 µM); IC90 [17]: 3.89 µg/mL (≈ 5.09 µM)
